# Tested on: mineralocorticoid receptor
# Experiment: MMTV-luciferase reporter assay of mineralocorticoid receptor activity in CV-1 cells
# Assay type: cell-based
# Details: 10 μg/ml compound, after 2 hours dexamethasone (1 nM), cultivated 24 hours, FIG. 2
# Procedure: RNA was separated from a CV-1 cell and PCR was performed using reverse transcriptase, so gene expressions of a glucocorticoid receptor (GR) and a mineralocorticoid receptor (MR) were confirmed, and the results are shown in FIG. 1.
# The CV-1 cell was cultivated in a 24-well flat incubator. After 24 hours, the incubating medium was replaced with a 10% charcoal dextran-treated FBS-DMEM, and then after 4 hours, a mixing DNA of a MMTV-luciferase reporter plasmid and an internal Control Group of a pRL-SV-40 plasmid was transfected using TRANSFAST™ reagent (Promega). After 24 hours, it was treated with 10 μg/ml of the compound (INDOFINE Chemical Company, Inc.) represented by Chemical Formula 1-1, and after 2 hours, was treated with dexamethasone (1 nM), and then cultivated for 24 hours. The luciferase activity in the cell lysate was measured using a Dual-Luciferase Reporter Assay System (Promega), and the transfection efficiency was normalized by revising Renilla luciferase activity to measure a relative luciferase activity, and the results are shown in FIG. 2.
structure (smiles),measurement,value
O=c1c(-c2ccc(O)c(O)c2)coc2cc(O)ccc12 [Chemical Formula 1-1],relative luciferase activity (mineralocorticoid receptor activity induced by dexamethasone),deteriorated activity of the mineralocorticoid receptor

# Reference: patent publication US20210338555A1, “COMPOSITION AND METHOD OF INHIBITING MINERALOCORTICOID RECEPTOR ACTIVITY BY APPLYING IT TO THE SKIN” (AMOREPACIFIC CORPORATION, priority 2018, published 2021)
